What was measured:
wild-type human CDK3 = molecular target: T1, wild-type human CDK3 (Homo sapiens, UniProt Q00526); assay: Cell-based assay for CDK3 inhibition: fraction of Tomato+ MDA-MB-157 cells infected with wild-type CDK3-expressing lentivirus
T1 construct: Full-length cDNAs of wild-type human CDK3; expressed in transfected cells; host or cells: MDA-MB-157 breast carcinoma cells, lentiviral vector pHIV-dTomato
Procedure: MDA-MB-157 cells were cultured in RPMI with 10% FBS+PS 1× and Glu 1×.
In the experiment shown in FIG. 2, MDA-MB-157 cells were plated at 10^5 cells per well of a 6-well plate and infected with 1 ml of lentiviral stocks expressing wild-type CDK3 or E195D CDK3 mutant, with 1× polybrene solution. 24 hrs post-infection, the media were changed to virus-free polybrene-free media. 8 days post-infection (FIG. 2) or 23 days post-infection (FIG. 2), the samples were immediately analyzed for Tomato (red fluorescent marker carried in the vector) fluorescence using Becton-Dickinson LSRII flow cytometer. The fraction of the infected cells was defined as the percentage of Tomato+cells.
In this experiment, MDA-MB-157 cells were plated at 5×10^5 cells per P100 plate. Cells were infected with 5 ml of media supernatant containing the wild-type CDK3 lentivirus, with 1× polybrene solution. 24 hrs post-infection, the media were changed to virus-free polybrene-free media. 48 hrs post-infection, cells were replated into 24-well plates, at 25,000 cells per well. The culture media (1 ml volume) in each well contained the CDK3 inhibitor SNX9-1-20 at 2, 1.75, 1.5, 1.25, 1, 0.9, 0.75, 0.5, 0.35, 0.2 and 0 μM (DMSO 0.1%), in duplicates. […] 4′,6-diamidino-2-phenylindole (DAPI) was added to the final concentration of 1 μg/ml and the samples were analyzed for DAPI and Tomato fluorescence using the flow cytometer.

wild-type human CDK2 = molecular target: T2, wild-type human CDK2 (Homo sapiens, UniProt P24941); assay: Cell-based assay for CDK2 inhibition: fraction of Tomato+ MDA-MB-157 cells infected with wild-type CDK2-expressing lentivirus
T2 construct: Full-length cDNAs of wild-type human CDK2 conjugated with a HA tag; expressed in transfected cells; host or cells: MDA-MB-157 breast carcinoma cells, lentiviral vector pHIV-dTomato
Procedure: MDA-MB-157 cells were cultured in RPMI with 10% FBS+PS 1X and Glu 1X.
In this experiment, MDA-MB-157 cells were plated at 5×10^5 cells per P100 plate. Cells were infected with 5 ml of media supernatant containing the wild-type of both CDK3 and CDK2 lentivirus, with 1 × polybrene solution. 24 hrs post-infection, the media were changed to virus-free polybrene-free media. 48 hrs post-infection, cells were replated into 24-well plates, at 25,000 cells per well. […] On day 5 after plating, the cells were harvested, centrifuged, suspended in RPMI and aliquoted at 200 μl per well into 96-well plates. 4′,6-diamidino-2-phenylindole (DAPI) was added to the final concentration of 1 μg/ml and the samples were analyzed for DAPI and Tomato fluorescence using the flow cytometer.

`CC(C)[C@H](CO)Nc1nc(Nc2cccc(Cl)c2)c2ncn(C(C)C)c2n1` [Purvalanol-A, Purvalanol A] was tested, and the “fraction of infected (Tomato+) cells, wild-type CDK3 lentivirus” value (wild-type human CDK3; 1.6 μM inhibitor, day 5 after plating, Example 2 (without inhibitor: 48.85% SNX9-1-20 experiment, 14.8% Purvalanol-A experiment)) was 66.5%, the EC50 (wild-type human CDK3; Example 2, FIG. 4 and FIG. 5, day 5, read-out: concentration producing half-maximal effect on the increase in the fraction of cells infected with the wild-type CDK3 lentivirus) was 0.6 µM and the “fraction of wild-type CDK2 infected (Tomato+) cells” value (wild-type human CDK2; 1.6 μM inhibitor, day 5 after plating, 25.5% in the absence of inhibitor, FIG. 5) was 65.25%. For the same molecule, the EC50 (wild-type human CDK2; Example 2, FIG. 5, day 5, read-out: concentration producing half-maximal effect on the increase in the fraction of infected cells (printed: wild-type CDK3 lentivirus; follows the CDK2 result)) was 0.2 µM.
